How the values were obtained:
[1] = Cytotoxicity against human A875 cells assessed as growth inhibition at 40 ug/mL after 72 hrs by MTT assay; assay type: functional; conditions: A875, 72 h, read-out: GI
[2] = Cytotoxicity against African green monkey MARC145 cells assessed as growth inhibition after 72 hrs by MTT assay; assay type: functional, cell-based; conditions: Chlorocebus aethiops, MARC145, 72 h
[3] = tested on: HepG2; experiment: Cytotoxicity against human HepG2 cells assessed as growth inhibition after 72 hrs by MTT assay; assay type: functional, cell-based; conditions: HepG2, 72 h
[4] = Cytotoxicity against human A875 cells assessed as growth inhibition after 72 hrs by MTT assay; assay type: functional, cell-based; conditions: A875, 72 h
[5] = tested on: SGC-7901; experiment: Cytotoxicity against human SGC7901 cells assessed as growth inhibition after 72 hrs by MTT assay; assay type: functional, cell-based; conditions: SGC-7901, 72 h
[6] = Cytotoxicity against African green monkey MARC145 cells assessed as growth inhibition at 40 ug/mL after 72 hrs by MTT assay; assay type: functional; conditions: Chlorocebus aethiops, MARC145, 72 h; read-out: GI
[7] = tested on: SGC-7901; experiment: Cytotoxicity against human SGC7901 cells assessed as growth inhibition at 40 ug/mL after 72 hrs by MTT assay; assay type: functional; conditions: SGC-7901, 72 h, read-out: GI
[8] = tested on: HepG2; experiment: Cytotoxicity against human HepG2 cells assessed as growth inhibition at 40 ug/mL after 72 hrs by MTT assay; assay type: functional; conditions: HepG2, 72 h, read-out: GI

| SMILES | inhibition of growth at 40 µg/mL [1] [%] | IC50 [2] [µM] | IC50 [3] [µM] | IC50 [4] [µM] | IC50 [5] [µM] | inhibition of growth at 40 µg/mL [6] [%] | inhibition of growth at 40 µg/mL [7] [%] | inhibition of growth at 40 µg/mL [8] [%] |
| --- | --- | --- | --- | --- | --- | --- | --- | --- |
| O=C(c1c[nH]c2ccccc12)c1nccc2c1[nH]c1ccccc12 | 59.1 | > 120 | > 120 | 75.8 | > 120 | 34.6 | 43.2 | 30.5 |
| O=C(O)c1cc2c([nH]c3ccccc32)c(C(=O)c2c[nH]c3ccccc23)n1 | 72.2 | 41.9 | 51.8 | 48.8 | 67.7 | 72 | 63 | 78.4 |
| COC(=O)c1cc2c([nH]c3ccccc32)c(C(=O)c2c[nH]c3ccccc23)n1 | 36.8 | > 100 | > 100 | > 100 | > 100 | 35.9 | 48.6 | 62.7 |
| O=C(NCc1cccnc1)c1cc2c([nH]c3ccccc32)c(C(=O)c2c[nH]c3ccccc23)n1 | 74.2 | 20.8 | 18.5 | 25.2 | 33.1 | 73.8 | 70.1 | 82.8 |
| O=C(NCc1ccccc1)c1cc2c([nH]c3ccccc32)c(C(=O)c2c[nH]c3ccccc23)n1 | 75.5 | 42.8 | 36.2 | 56.4 | 39.9 | 67.4 | 79 | 77.3 |
| COc1ccc(NC(=O)c2cc3c([nH]c4ccccc43)c(C(=O)c3c[nH]c4ccccc34)n2)cc1 | 72.1 | > 85 | > 85 | 65.4 | > 85 | 42 | 41.2 | 44.8 |
| O=C(NCc1ccccn1)c1cc2c([nH]c3ccccc32)c(C(=O)c2c[nH]c3ccccc23)n1 | 70.7 | 33.8 | 26.3 | 42.5 | 43.9 | 66.2 | 69.5 | 79.6 |
| Cc1ccc(CNC(=O)c2cc3c([nH]c4ccccc43)c(C(=O)c3c[nH]c4ccccc34)n2)cc1 | 27 | 73.2 | 65.3 | > 85 | 66 | 55 | 64 | 63.9 |
| CS(=O)(=O)CCNC(=O)c1cc2c([nH]c3ccccc32)c(C(=O)c2c[nH]c3ccccc23)n1 | 87.9 | 7.19 | 7.69 | 8.43 | 6.82 | 90.2 | 88.5 | 87.3 |
| O=C(NCc1ccc(F)cc1)c1cc2c([nH]c3ccccc32)c(C(=O)c2c[nH]c3ccccc23)n1 | 68.1 | 55.1 | 39 | 63.1 | 34.5 | 63.8 | 78.8 | 73.9 |
| O=C(NCCc1ccc(F)cc1)c1cc2c([nH]c3ccccc32)c(C(=O)c2c[nH]c3ccccc23)n1 | 33.9 | 48.8 | 38.5 | > 80 | 34 | 63 | 76.7 | 72.4 |
| COc1cc(CNC(=O)c2cc3c([nH]c4ccccc43)c(C(=O)c3c[nH]c4ccccc34)n2)ccc1O | 81.7 | 21.8 | 11.1 | 8.47 | 16.2 | 79.1 | 83.1 | 80.9 |
| COC(=O)C(CO)NC(=O)c1cc2c([nH]c3ccccc32)c(C(=O)c2c[nH]c3ccccc23)n1 (stereo not given) | 83.9 | 16.3 | 9.99 | 10.5 | 14.3 | 83.2 | 82.7 | 79 |
| COc1ccc(CCNC(=O)c2cc3c([nH]c4ccccc43)c(C(=O)c3c[nH]c4ccccc34)n2)cc1OC | 0 | > 75 | > 75 | > 75 | > 75 | 38.4 | 22.1 | 31.7 |
| O=C(NCCc1cccc(O)c1)c1cc2c([nH]c3ccccc32)c(C(=O)c2c[nH]c3ccccc23)n1 | 87.5 | 13.8 | 8.63 | 11.9 | 17.7 | 83.2 | 88.3 | 86.9 |
| O=C(NCCc1ccccc1)c1cc2c([nH]c3ccccc32)c(C(=O)c2c[nH]c3ccccc23)n1 | 77.1 | 25.9 | 19.8 | 44.8 | 23 | 79.8 | 84.5 | 82.3 |
| O=C(NCCc1c[nH]c2ccccc12)c1cc2c([nH]c3ccccc32)c(C(=O)c2c[nH]c3ccccc23)n1 | 77.8 | 44.1 | 41 | 50.4 | 38.6 | 67 | 76.6 | 74.4 |
| COc1cccc(CCNC(=O)c2cc3c([nH]c4ccccc43)c(C(=O)c3c[nH]c4ccccc34)n2)c1 | 16.6 | > 80 | > 80 | > 80 | > 80 | 48.4 | 39.3 | 40.1 |
| O=C(Nc1ccc(F)cc1)c1cc2c([nH]c3ccccc32)c(C(=O)c2c[nH]c3ccccc23)n1 | 20.7 | > 85 | > 85 | > 85 | > 85 | 47.5 | 34 | 34.8 |
| O=c1[nH]cc(F)c(=O)[nH]1 [FLUOROURACIL] | 61 | 116 | 66.4 | 62.1 | 53.6 | 66.7 | 79.9 | 72.6 |
